ChEMBL document CHEMBL3885861, “Open TG-GATES”

Species on record: Rattus norvegicus
Experiment: Open TG-GATES - Regimen: Single
Type: toxicity, organism-based, Sprague-Dawley
Design: regimen Single, gender Male, age 6 weeks
Conditions: in vivo, po, route gavage; for KIDNEY_L / KIDNEY_R / KIDNEY_TOTAL: tissue Kidney; for LIVER: tissue Liver; for ALT / AST / BUN / CRE / DBIL / GLC / IP / K / PL / RALB / TBIL / TC / TG / TP / gamma-GTP / ALP: tissue Plasma
[1] = 0 mg/kg, 3 h, tissue Blood, dose level Control
[2] = 0 mg/kg, 3 h, dose level Control
[3] = 0 mg/kg, 6 h, tissue Blood, dose level Control
[4] = 0 mg/kg, 6 h, dose level Control
[5] = 0 mg/kg, 9 h, tissue Blood, dose level Control
[6] = 0 mg/kg, 9 h, dose level Control
[7] = 0 mg/kg, 24 h, tissue Blood, dose level Control
[8] = 0 mg/kg, 24 h, dose level Control
[9] = 10 mg/kg, 3 h, tissue Blood, dose level Low
[10] = 10 mg/kg, 6 h, tissue Blood, dose level Low
[11] = 10 mg/kg, 9 h, tissue Blood, dose level Low
[12] = 10 mg/kg, 24 h, tissue Blood, dose level Low

Compound: CC(C)OC(=O)C(C)(C)Oc1ccc(C(=O)c2ccc(Cl)cc2)cc1 [FENOFIBRATE]
- Bas [1]: 0.4%
- Eos [1]: 0.8%
- Fbg [1]: 289.4 mg/dL
- Ht [1]: 39.8%
- MCHC [1]: 32.5%
- Mono [1]: 4%
- RBC [1]: 616.8 x10_4/ul
- Ret [1]: 9%
- KIDNEY_L [2]: 0.8 g
- KIDNEY_R [2]: 0.8 g
- KIDNEY_TOTAL [2]: 1.5 g
- LIVER [2]: 7.9 g
- ALT [2]: 48.4 IU/L
- AST [2]: 83 IU/L
- BUN [2]: 9 mg/dL
- CRE [2]: 0.2 mg/dL
- DBIL [2]: 0.006 mg/dL
- GLC [2]: 182.6 mg/dL
- IP [2]: 9.5 mg/dL
- K [2]: 4.3 meq/L
- PL [2]: 140.8 mg/dL
- RALB [2]: 2.4 g/dL
- TBIL [2]: 0.048 mg/dL
- TC [2]: 77 mg/dL
- TG [2]: 41.2 mg/dL
- TP [2]: 5.2 g/dL
- gamma-GTP [2]: 1.4 IU/L
- Bas [3]: 0.4%
- Eos [3]: 0.8%
- Fbg [3]: 268.2 mg/dL
- Ht [3]: 40.1%
- MCHC [3]: 32.4%
- Mono [3]: 3%
- RBC [3]: 599.2 x10_4/ul
- Ret [3]: 9.6%
- KIDNEY_L [4]: 0.8 g
- KIDNEY_R [4]: 0.8 g
- KIDNEY_TOTAL [4]: 1.5 g
- LIVER [4]: 7.2 g
- ALP [4]: 1534.8 IU/L
- ALT [4]: 41.8 IU/L
- AST [4]: 81.8 IU/L
- BUN [4]: 9.6 mg/dL
- CRE [4]: 0.2 mg/dL
- DBIL [4]: 0.008 mg/dL
- GLC [4]: 173.8 mg/dL
- IP [4]: 9.7 mg/dL
- K [4]: 4.1 meq/L
- PL [4]: 142.6 mg/dL
- RALB [4]: 2.5 g/dL
- TBIL [4]: 0.056 mg/dL
- TC [4]: 82.4 mg/dL
- TG [4]: 44.6 mg/dL
- TP [4]: 5.4 g/dL
- gamma-GTP [4]: 1 IU/L
- Bas [5]: 0%
- Eos [5]: 1%
- Fbg [5]: 292.6 mg/dL
- Ht [5]: 39.3%
- MCHC [5]: 32.3%
- Mono [5]: 2.4%
- RBC [5]: 584.2 x10_4/ul
- Ret [5]: 9.6%
- KIDNEY_L [6]: 0.8 g
- KIDNEY_R [6]: 0.8 g
- KIDNEY_TOTAL [6]: 1.5 g
- LIVER [6]: 6.9 g
- ALP [6]: 1454.2 IU/L
- ALT [6]: 38.6 IU/L
- AST [6]: 75.8 IU/L
- BUN [6]: 8.4 mg/dL
- CRE [6]: 0.2 mg/dL
- DBIL [6]: 0.008 mg/dL
- GLC [6]: 178.8 mg/dL
- IP [6]: 9.5 mg/dL
- K [6]: 4 meq/L
- PL [6]: 145.8 mg/dL
- RALB [6]: 2.4 g/dL
- TBIL [6]: 0.058 mg/dL
- TC [6]: 83.2 mg/dL
- TG [6]: 38.6 mg/dL
- TP [6]: 5.2 g/dL
- gamma-GTP [6]: 1 IU/L
- Bas [7]: 0.2%
- Eos [7]: 1%
- Fbg [7]: 281.4 mg/dL
- Ht [7]: 39.1%
- MCHC [7]: 32.7%
- Mono [7]: 3%
- RBC [7]: 590.8 x10_4/ul
- Ret [7]: 9.3%
- KIDNEY_L [8]: 0.9 g
- KIDNEY_R [8]: 0.8 g
- KIDNEY_TOTAL [8]: 1.7 g
- LIVER [8]: 9.1 g
- ALT [8]: 50.4 IU/L
- AST [8]: 77.6 IU/L
- CRE [8]: 0.2 mg/dL
- DBIL [8]: 0.012 mg/dL
- GLC [8]: 186.2 mg/dL
- IP [8]: 8.5 mg/dL
- K [8]: 4.4 meq/L
- PL [8]: 153.6 mg/dL
- RALB [8]: 2.6 g/dL
- TBIL [8]: 0.04 mg/dL
- TC [8]: 82.8 mg/dL
- TG [8]: 65 mg/dL
- TP [8]: 5.6 g/dL
- gamma-GTP [8]: 0.8 IU/L
- Bas [9]: 0.2%
- Eos [9]: 0.6%
- Fbg [9]: 280.8 mg/dL
- Ht [9]: 40.3%
- MCHC [9]: 32.3%
- Mono [9]: 3.6%
- RBC [9]: 603 x10_4/ul
- Ret [9]: 10.2%
- KIDNEY_L (10 mg/kg, 3 h, dose level Low): 0.8 g
- KIDNEY_R (10 mg/kg, 3 h, dose level Low): 0.8 g
- KIDNEY_TOTAL (10 mg/kg, 3 h, dose level Low): 1.6 g
- LIVER (10 mg/kg, 3 h, dose level Low): 7.8 g
- ALP (10 mg/kg, 3 h, dose level Low): 1472.8 IU/L
- ALT (10 mg/kg, 3 h, dose level Low): 49.4 IU/L
- AST (10 mg/kg, 3 h, dose level Low): 83.6 IU/L
- BUN (10 mg/kg, 3 h, dose level Low): 9.8 mg/dL
- CRE (10 mg/kg, 3 h, dose level Low): 0.2 mg/dL
- DBIL (10 mg/kg, 3 h, dose level Low): 0.01 mg/dL
- GLC (10 mg/kg, 3 h, dose level Low): 178.4 mg/dL
- IP (10 mg/kg, 3 h, dose level Low): 10 mg/dL
- K (10 mg/kg, 3 h, dose level Low): 4.2 meq/L
- PL (10 mg/kg, 3 h, dose level Low): 140.8 mg/dL
- RALB (10 mg/kg, 3 h, dose level Low): 2.4 g/dL
- TBIL (10 mg/kg, 3 h, dose level Low): 0.058 mg/dL
- TC (10 mg/kg, 3 h, dose level Low): 80.4 mg/dL
- TG (10 mg/kg, 3 h, dose level Low): 43 mg/dL
- TP (10 mg/kg, 3 h, dose level Low): 5.2 g/dL
- gamma-GTP (10 mg/kg, 3 h, dose level Low): 1.4 IU/L
- Bas [10]: 0%
- Eos [10]: 0.8%
- Fbg [10]: 283 mg/dL
- Ht [10]: 39.7%
- Lym [10]: 69.4%
- MCHC [10]: 32%
- Mono [10]: 2.6%
- RBC [10]: 572.6 x10_4/ul
- Ret [10]: 11.1%
- KIDNEY_L (10 mg/kg, 6 h, dose level Low): 0.8 g
- KIDNEY_R (10 mg/kg, 6 h, dose level Low): 0.8 g
- KIDNEY_TOTAL (10 mg/kg, 6 h, dose level Low): 1.6 g
- LIVER (10 mg/kg, 6 h, dose level Low): 7.8 g
- ALP (10 mg/kg, 6 h, dose level Low): 1504.8 IU/L
- ALT (10 mg/kg, 6 h, dose level Low): 43.4 IU/L
- AST (10 mg/kg, 6 h, dose level Low): 77.2 IU/L
- BUN (10 mg/kg, 6 h, dose level Low): 8.8 mg/dL
- CRE (10 mg/kg, 6 h, dose level Low): 0.2 mg/dL
- DBIL (10 mg/kg, 6 h, dose level Low): 0.01 mg/dL
- GLC (10 mg/kg, 6 h, dose level Low): 180.2 mg/dL
- IP (10 mg/kg, 6 h, dose level Low): 10.2 mg/dL
- K (10 mg/kg, 6 h, dose level Low): 4.2 meq/L
- PL (10 mg/kg, 6 h, dose level Low): 128 mg/dL
- RALB (10 mg/kg, 6 h, dose level Low): 2.5 g/dL
- TBIL (10 mg/kg, 6 h, dose level Low): 0.056 mg/dL
- TC (10 mg/kg, 6 h, dose level Low): 71.6 mg/dL
- TG (10 mg/kg, 6 h, dose level Low): 36.8 mg/dL
- TP (10 mg/kg, 6 h, dose level Low): 5.4 g/dL
- gamma-GTP (10 mg/kg, 6 h, dose level Low): 1.4 IU/L
- Bas [11]: 0%
- Eos [11]: 1%
- Fbg [11]: 283 mg/dL
- Ht [11]: 39.6%
- MCHC [11]: 32.4%
- Mono [11]: 1.4%
- RBC [11]: 608.4 x10_4/ul
- Ret [11]: 9.5%
- KIDNEY_L (10 mg/kg, 9 h, dose level Low): 0.8 g
- KIDNEY_R (10 mg/kg, 9 h, dose level Low): 0.8 g
- KIDNEY_TOTAL (10 mg/kg, 9 h, dose level Low): 1.6 g
- LIVER (10 mg/kg, 9 h, dose level Low): 7 g
- ALP (10 mg/kg, 9 h, dose level Low): 1360.4 IU/L
- ALT (10 mg/kg, 9 h, dose level Low): 42.4 IU/L
- AST (10 mg/kg, 9 h, dose level Low): 77.4 IU/L
- BUN (10 mg/kg, 9 h, dose level Low): 7.4 mg/dL
- CRE (10 mg/kg, 9 h, dose level Low): 0.1 mg/dL
- DBIL (10 mg/kg, 9 h, dose level Low): 0.01 mg/dL
- GLC (10 mg/kg, 9 h, dose level Low): 175.2 mg/dL
- IP (10 mg/kg, 9 h, dose level Low): 9.8 mg/dL
- K (10 mg/kg, 9 h, dose level Low): 3.9 meq/L
- PL (10 mg/kg, 9 h, dose level Low): 124 mg/dL
- RALB (10 mg/kg, 9 h, dose level Low): 2.4 g/dL
- TBIL (10 mg/kg, 9 h, dose level Low): 0.054 mg/dL
- TC (10 mg/kg, 9 h, dose level Low): 70.8 mg/dL
- TG (10 mg/kg, 9 h, dose level Low): 31.2 mg/dL
- TP (10 mg/kg, 9 h, dose level Low): 5.2 g/dL
- gamma-GTP (10 mg/kg, 9 h, dose level Low): 0.8 IU/L
- Bas [12]: 0%
- Eos [12]: 1%
- Fbg [12]: 270 mg/dL
- Ht [12]: 38.6%
- MCHC [12]: 32.4%
- Mono [12]: 3.8%
- RBC [12]: 590.4 x10_4/ul
- Ret [12]: 8.6%
- KIDNEY_L (10 mg/kg, 24 h, dose level Low): 0.8 g
- KIDNEY_R (10 mg/kg, 24 h, dose level Low): 0.8 g
- KIDNEY_TOTAL (10 mg/kg, 24 h, dose level Low): 1.6 g
- LIVER (10 mg/kg, 24 h, dose level Low): 9.2 g
- ALP (10 mg/kg, 24 h, dose level Low): 1838.8 IU/L
- ALT (10 mg/kg, 24 h, dose level Low): 49.2 IU/L
- AST (10 mg/kg, 24 h, dose level Low): 76.8 IU/L
- BUN (10 mg/kg, 24 h, dose level Low): 14.2 mg/dL
- CRE (10 mg/kg, 24 h, dose level Low): 0.2 mg/dL
- DBIL (10 mg/kg, 24 h, dose level Low): 0.012 mg/dL
- GLC (10 mg/kg, 24 h, dose level Low): 179.6 mg/dL
- IP (10 mg/kg, 24 h, dose level Low): 8.6 mg/dL
- K (10 mg/kg, 24 h, dose level Low): 4.3 meq/L
- PL (10 mg/kg, 24 h, dose level Low): 133.2 mg/dL
- RALB (10 mg/kg, 24 h, dose level Low): 2.6 g/dL
- TBIL (10 mg/kg, 24 h, dose level Low): 0.04 mg/dL
- TC (10 mg/kg, 24 h, dose level Low): 68.8 mg/dL
- TG (10 mg/kg, 24 h, dose level Low): 54 mg/dL
- TP (10 mg/kg, 24 h, dose level Low): 5.4 g/dL
- gamma-GTP (10 mg/kg, 24 h, dose level Low): 1.2 IU/L
